What was measured:
[1] = target: T1, ECD of human GIPR (amino acids 26 to 138) (Homo sapiens, UniProt P48546); experiment: GIPR extracellular domain binding by surface plasmon resonance; conditions: equilibrium affinity, immobilized GIPR ectodomain, Biacore T200, HBS-EP pH 7.6; (SEM, n); read-out: GIPR SPR KD
T1 construct: human GIPR (amino acids 26 to 138); 6His; made in house; host or cells: CHO cells
T1 sequence (P48546 26-138): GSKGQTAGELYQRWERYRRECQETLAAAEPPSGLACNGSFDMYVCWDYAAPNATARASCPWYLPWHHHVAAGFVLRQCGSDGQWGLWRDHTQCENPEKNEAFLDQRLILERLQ
From the text: DNA encoding each protein was transfected into CHO cells for expression. After expression, the proteins were purified by affinity chromatography (HIS-Trap Ni, Cytiva) followed by size exclusion chromatography using a HiLoad 26/600 Superdex 75pg column (Cytiva) with PBS buffer. […] Surface plasmon resonance measurements were made using a Biacore T200 (Cytiva) and analyzed using T200 Evaluation Software Version 3.1. Receptor ectodomain proteins were covalently immobilized (∼250 resonance units) on Sensor Chip CM4 BR100534 using the Amine coupling Immobilization Wizard in the Biacore T200 Control Software Version 2.0.2. […]
and efficacy (% Top) of ligands to induce Gα s -GTPγS binding and cAMP accumulation in HEK293 cells expressing GIPR were determined. The equilibrium affinity (KD) of ligands for the immobilized ectodomain of the GIPR were quantified by surface plasmon resonance. […]
(§1) Functional potency (EC50) and efficacy (% Top) of ligands to induce Gα s-GTPγS binding and cAMP accumulation in HEK293 cells expressing GLP-1R were determined. The equilibrium affinity (KD) of ligands for the immobilized ectodomain of the GLP-1R were quantified by surface plasmon resonance. […]
recruitment to the GLP-1R were determined using the NanoBRET approach. The potency (EC50) and efficacy (% Top) for ligands to induce GLP-1R Internalization were determined using diffusion-enhanced resonance energy transfer. […]

[2] = target: T2, human GIPR (Homo sapiens, UniProt P48546); experiment: GIPR low density cAMP accumulation in HEK293 cells; format: cell-based
T2 construct: expressed in transfected cells; host or cells: HEK293
T2 sequence (P48546 22-466): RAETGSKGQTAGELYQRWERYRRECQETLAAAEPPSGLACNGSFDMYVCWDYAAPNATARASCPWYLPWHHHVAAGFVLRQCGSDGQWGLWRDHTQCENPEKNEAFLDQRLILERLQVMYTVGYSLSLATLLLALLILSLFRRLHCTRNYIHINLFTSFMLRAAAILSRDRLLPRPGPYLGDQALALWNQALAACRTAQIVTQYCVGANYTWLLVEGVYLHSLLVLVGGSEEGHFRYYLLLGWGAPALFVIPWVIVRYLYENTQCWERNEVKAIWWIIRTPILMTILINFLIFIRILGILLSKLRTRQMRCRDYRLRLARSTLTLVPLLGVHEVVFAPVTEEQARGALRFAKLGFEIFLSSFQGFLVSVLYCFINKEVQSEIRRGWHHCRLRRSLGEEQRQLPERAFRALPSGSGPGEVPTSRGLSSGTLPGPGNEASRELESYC
Description: (§2) Fig. 4. […] (B) Ligand-induced GTPγS binding of Gαs was performed using the GIPR-expressing membranes. […] (C) Agonist-stimulated cAMP production was measured in human GIPR expressing HEK293 cells. […] (E) Ligand-induced GTPγS binding of Gαs was performed using the GLP-1R-expressing membranes. […] (F) Agonist-stimulated cAMP production was measured in human GLP-1R-expressing HEK293 cells. […] Data presented are representative of n ≥ 3 independent experiments. Summarized data are shown in SI Appendix, Table 2. log M; log Molar.
(§3) We note that the albumin-binding propensity of fatty acid-modified peptides can confound a pharmacological comparison of molecules, given the common use of albumin and serum as nonspecific blocking agents in biological assays. Therefore, to obviate this, entirely albumin-free assays supplemented with bovine casein or bacitracin were used to prevent nonspecific binding ([10]).
(§4) Functional potency (EC50)
(§5) and efficacy (% Top) of ligands to induce Gα s -GTPγS binding and cAMP accumulation in HEK293 cells expressing GIPR were determined. The equilibrium affinity (KD) of
(§6) ligands for the immobilized ectodomain of the GIPR were quantified by surface plasmon resonance. […]
(§7) SPR data were analyzed using T200 evaluation software (Cytiva). All data are presented as geometric means with SEM and n values
(§8) according to established practices. ND, not determined. NA, not applicable.

[3] = target: T2, human GIPR; experiment: GIPR Gαs [35S]GTPγS binding, GIPR-expressing membranes; format: biochemical
Description: as §2, §3, §4, §5, §6, §7, §8

[4] = target: GLP-1R (Homo sapiens, UniProt P43220); experiment: GLP-1R low density cAMP accumulation in HEK293 cells; format: cell-based; design: expressed in transfected cells; host or cells: HEK293
GLP-1R, sequence (P43220 24-463): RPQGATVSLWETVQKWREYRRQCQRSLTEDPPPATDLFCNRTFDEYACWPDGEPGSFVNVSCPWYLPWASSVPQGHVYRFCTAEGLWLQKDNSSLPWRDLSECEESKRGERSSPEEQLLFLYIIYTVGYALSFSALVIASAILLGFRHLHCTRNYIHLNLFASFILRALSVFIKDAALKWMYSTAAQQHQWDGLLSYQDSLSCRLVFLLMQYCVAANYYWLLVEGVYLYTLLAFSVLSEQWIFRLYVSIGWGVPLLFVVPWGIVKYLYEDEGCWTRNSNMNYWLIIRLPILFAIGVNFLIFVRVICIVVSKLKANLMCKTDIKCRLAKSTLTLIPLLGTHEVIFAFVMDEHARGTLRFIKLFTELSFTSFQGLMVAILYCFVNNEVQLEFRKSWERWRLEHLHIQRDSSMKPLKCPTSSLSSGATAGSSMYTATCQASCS
Description: as §2
as §3, with “([10]). […]” for “([10]).”
Middle Panel: The affinity (Ki) of ligands for the GLP-1R was […]
as §1
SPR data were analyzed using T200 evaluation software (Cytiva). All data are presented as geometric means with SEM and n values according to established practices. ND, not determined. NA, not applicable.

[5] = efficacy (% Top), normalized to GIP(1-42), (SEM)

`CC[C@H](C)[C@H](NC(=O)[C@H](CC(C)C)NC(=O)[C@H](Cc1c[nH]c2ccccc12)NC(=O)[C@H](CCC(N)=O)NC(=O)[C@@H](NC(=O)[C@H](Cc1ccccc1)NC(=O)[C@H](C)NC(=O)[C@H](CCCCN)NC(=O)[C@H](CCC(N)=O)NC(=O)[C@H](C)NC(=O)[C@@H](NC(=O)[C@H](CCCCN)NC(=O)[C@H](CC(=O)O)NC(=O)[C@H](CC(C)C)NC(=O)C(C)(C)NC(=O)[C@@H](NC(=O)[C@H](CO)NC(=O)[C@H](Cc1ccc(O)cc1)NC(=O)[C@H](CC(=O)O)NC(=O)[C@H](CO)NC(=O)[C@@H](NC(=O)[C@H](Cc1ccccc1)NC(=O)[C@@H](NC(=O)CNC(=O)[C@H](CCC(=O)O)NC(=O)C(C)(C)NC(=O)[C@@H](N)Cc1ccc(O)cc1)[C@@H](C)O)[C@@H](C)O)[C@@H](C)CC)[C@@H](C)CC)C(C)C)C(=O)N[C@@H](C)C(=O)NCC(=O)NCC(=O)N1CCC[C@H]1C(=O)N[C@@H](CO)C(=O)N[C@@H](CO)C(=O)NCC(=O)N[C@@H](C)C(=O)N1CCC[C@H]1C(=O)N1CCC[C@H]1C(=O)N1CCC[C@H]1C(=O)N[C@@H](CO)C(N)=O` [Tzp∆C20] was tested, and the Kd [1] was 1690 nM, the EC50 ([2]; cAMP accumulation, HEK293 cells expressing GIPR, albumin-free, geometric mean (SEM, n)) was 0.0163 nM and the “GIPR Low Density cAMP Top” value [2, 5] was 107 (4) %. The EC50 ([3]; Gαs-GTPγS binding, GIPR-expressing membranes, albumin-free, geometric mean (SEM, n), read-out: GIPR GTPγS Recruitment EC50) was 0.0733 nM, the “GIPR GTPγS Recruitment Top” value [3, 5] was 91.0 (3.5) % and the EC50 ([4]; cAMP accumulation, HEK293 cells expressing GLP-1R, albumin-free, geometric mean (SEM, n)) was 1.05 nM. For the same compound, the “GLP-1R Low Density cAMP Top” value ([4]; efficacy (% Top), normalized to GLP-1(7-36), (SEM)) was 105 (2) %.
